Measurements reported in US20070286888A1, “Additive For Feeds And Feed Containing The Same” (Kabushiki Kaisha Yakult Honsha, priority 2004, published 2007).

Experiments:
[1] = tested on: L. reuteri YIT0480 strain; assay: Antibiotic resistance test, L. reuteri; assay type: cell-based, Lactobacillus reuteri
Procedure: (§1) The 11 antibiotics shown in Table 3 were separately added at concentrations of 100, 10, 1, 0.1, and 0 μg/ml, to thereby prepare MRS agar mediums (manufactured by Difco). Subsequently, cell culture solutions of the five bacterial stains (A) and (B) obtained in Production Example 1 (10 μl each) were separately inoculated into the respective antibiotic-containing MRS mediums (the cell number of each bacterial strain: about 1·10^8 cells/ml), followed by smear culture at 37° C. for 48 hours under anaerobic conditions. The proliferated bacteria were evaluated with the naked eye, and the […] for each antibiotic (μg/ml) were calculated.

[2] = tested on: L. johnsonii YIT0482 strain; assay: Antibiotic resistance test, L. johnsonii; assay type: cell-based, Lactobacillus johnsonii
Procedure: as §1

[3] = tested on: five Lactobacillus bacterial stains (A) and (B); assay: Antibiotic resistance test, all five strains; assay type: cell-based
Procedure: as §1

[4] = Proliferative activity test in skim milk media; assay type: cell-based; set-up: key to Proliferative activity 24 hours later SM / Proliferative activity 24 hours later YE / Proliferative activity 24 hours later P / Proliferative activity 24 hours later YP / Proliferative activity 48 hours later SM / Proliferative activity 48 hours later YE / Proliferative activity 48 hours later P / Proliferative activity 48 hours later YP: ∘: completely solidified culture solution due to proliferated cells; Δ: semifluid culture solution with slightly proliferated cells; x: liquid culture solution with unproliferated cells; conditions: for Proliferative activity 24 hours later P / Proliferative activity 48 hours later P: 0.1% peptone +10% skim milk; for Proliferative activity 24 hours later P / Proliferative activity 48 hours later P / Proliferative activity 24 hours later YP / Proliferative activity 48 hours later YP / Proliferative activity 24 hours later YE / Proliferative activity 48 hours later YE / Proliferative activity 24 hours later SM / Proliferative activity 48 hours later SM: 37° C.; for Proliferative activity 24 hours later YP / Proliferative activity 48 hours later YP: 0.1% yeast extract +0.1% peptone +10% skim milk; for Proliferative activity 24 hours later YE / Proliferative activity 48 hours later YE: 0.1% yeast extract +10% skim milk; for Proliferative activity 24 hours later SM / Proliferative activity 48 hours later SM: 10% skim milk
Procedure: Four mediums, i.e., 10% skim milk (SM), 0.1% yeast extract (manufactured by Difco) +10% skim milk (YE), 0.1% peptone (manufactured by Difco) +10% skimmilk (P), and 0.1% yeast extract (manufactured by Difco) +0.1% peptone (manufactured by Difco) +10% skimmilk (YP) were subjected to high-pressure heat sterilization at 115° C. for 15 minutes, and then cell culture solutions of the five bacterial stains (A) and (B) obtained in Production Example 1 above (30 μl each) were separately inoculated into 3 ml of the respective mediums (the cell number of each bacterial strain: about 3·10^8 cells/ml), followed by culture at 37° C. for 24 hours and 48 hours. For proliferative activity tests, the culture solutions were evaluated based on the following criteria: completely solidified culture solution due to proliferated cells: “∘”; semifluid culture solution with slightly proliferated cells: “Δ”; and liquid culture solution with unproliferated cells: “x”.

[5] = tested on: horse gastric mucosal epithelial cell; assay: Cell adhesion test to horse gastric mucosal epithelial cell; assay type: cell-based; conditions: for Adhesion of bacteria to horse gastric mucosal epithelial cell: cells adhered to one gastric mucosal epithelial cell, 37° C., Giemsa stain
Procedure: Meanwhile, gastric mucosal epithelial tissue pieces (1 cm^2) taken from a horse were added to 3 ml (the cell number of each bacterial strain: about 3·10^8 cells/ml) of cell culture solutions of the five bacterial stains (A) and (B) obtained in Production Example 1 above, followed by culture with shaking at 37° C. Then, the gastric mucosal epithelial tissue pieces were washed with a buffer (composition: 0.8% NaCl; 0.121% K2HPO4; 0.034% KH2PO4; pH 7.2) several times, and the gastricmucosal epithelial cells were scraped off from the gastric mucosal epithelial tissue pieces under a stereomicroscope, followed by Giemsa stain. The resultant cells were used to count the number of cells of each bacterial strain that adhered to one gastric mucosal epithelial cell under a microscope, and the adhesion was evaluated.

[6] = Proliferative Activity Test 1 in presence of oxytetracycline hydrochloride; assay type: cell-based; set-up: key: ∘: fully proliferated; Δ: slightly proliferated; x: unproliferated; conditions: MRS agar, 37° C., 48 hours, anaerobic
Procedure: (§2) Meanwhile, the proliferative activity test in the presence of an antibiotic was performed using cell culture solutions containing (A) L. equi YIT0483 strain and (B) at least one selected from the four Lactobacillus strains in combination.
(§3) MRS agar mediums (manufactured by Difco) to which oxytetracycline hydrochloride was added as an antibiotic at concentrations of 10, 5, 2, and 0 µg/ml were prepared. Subsequently, a cell culture solution of only (A) L. equi strain and a mixed cell culture solution of (A) L. equi strain and (B) L. reuteri strain (10 μl each) were separately inoculated into the respective antibiotic-containing MRS mediums (the cell number of each bacterial strain: about 1·10^6 cells/ml), followed by smear culture at 37° C. for 48 hours under anaerobic conditions. Then, the proliferative activities of the bacteria were evaluated with the naked eye.

[7] = Proliferative Activity Test 2 in presence of gentamicin; assay type: cell-based; set-up: key: ∘: fully proliferated; Δ: slightly proliferated; x: unproliferated; conditions: MRS agar, 37° C., 48 hours, anaerobic
Procedure: as §2
as §3, with “gentamicin” for “oxytetracycline hydrochloride”, “100, 50, 20,” for “10, 5, 2,”, “μg/ml” for “µg/ml”, “johnsonii” for “reuteri”

[8] = Proliferative Activity Test 3 in presence of ofloxacin; assay type: cell-based; set-up: key: ∘: fully proliferated; Δ: slightly proliferated; x: unproliferated; conditions: MRS agar, 37° C., 48 hours, anaerobic
Procedure: as §2
as §3, with “ofloxacin” for “oxytetracycline hydrochloride”, “100, 50, 20,” for “10, 5, 2,”, “μg/ml” for “µg/ml”, “johnsonii strain or L. equi strain and L. crispatus” for “reuteri”

[9] = tested on: L. equi YIT0483 strain; assay: Antibiotic resistance test, L. equi; assay type: cell-based, Lactobacillus equi
Procedure: as §1

Compound | Proliferative activity 24 hours later P [4] | Proliferative activity 48 hours later P [4] | Proliferative activity 24 hours later YP [4] | Proliferative activity 48 hours later YP [4] | Proliferative activity 24 hours later YE [4] | Proliferative activity 48 hours later YE [4] | Proliferative activity 24 hours later SM [4] | Proliferative activity 48 hours later SM [4] | Adhesion of bacteria to horse gastric mucosal epithelial cell [5] | also measured
CC1(C)S[C@@H]2[C@H](NC(=O)[C@H](N)c3ccccc3)C(=O)N2[C@H]1C(=O)O [Ampicillin] |  |  |  |  |  |  |  |  |  | Resistance of the strain to the antibiotic (in words) [1]: particularly excellent resistance
Gentamicin |  |  |  |  |  |  |  |  |  | Resistance of the strain to the antibiotic (in words) [2]: excellent specific resistance
Bactramin |  |  |  |  |  |  |  |  |  | Resistance of the strains to the antibiotic (in words) [3]: excellent resistance
Lactobacillus salivarius YIT0479 strain [(B) L. salivarius YIT0479 strain] | ∘ | ∘ | ∘ | ∘ | ∘ | ∘ | x | ∘ | ++ (10-99 cells adhered to one gastric mucosal epithelial cell) | 
Lactobacillus reuteri YIT0480 strain [(B) L. reuteri YIT0480 strain] | ∘ | ∘ | ∘ | ∘ | ∘ | ∘ | x | x | + (1-9 cells adhered to one gastric mucosal epithelial cell) | 
Lactobacillus equi YIT0483 strain [(A) L. equi YIT0483 strain] | ∘ | ∘ | ∘ | ∘ | ∘ | ∘ | ∘ | ∘ | ++ (10-99 cells adhered to one gastric mucosal epithelial cell) | Proliferative activity (in words) ([4]; under the respective medium conditions): excellent proliferative activity; Adhesion to horse gastric mucosal epithelial cells (in words) [5]: excellent; Proliferative activity, Oxytetracycline 0 μg/ml ([6]; oxytetracycline 0 μg/ml): ∘; Proliferative activity, Oxytetracycline 2 μg/ml ([6]; oxytetracycline 2 μg/ml): x; Proliferative activity, Oxytetracycline 5 μg/ml ([6]; oxytetracycline 5 μg/ml): x; Proliferative activity, Oxytetracycline 10 μg/ml ([6]; oxytetracycline 10 μg/ml): x; Proliferative activity, Genatmicin 0 μg/ml ([7]; gentamicin 0 μg/ml): ∘; Proliferative activity, Genatmicin 20 μg/ml ([7]; gentamicin 20 μg/ml): Δ; Proliferative activity, Genatmicin 50 μg/ml ([7]; gentamicin 50 μg/ml): x; Proliferative activity, Genatmicin 100 μg/ml ([7]; gentamicin 100 μg/ml): x; Proliferative activity, Ofloxacin 0 μg/ml ([8]; ofloxacin 0 μg/ml): ∘; Proliferative activity, Ofloxacin 20 μg/ml ([8]; ofloxacin 20 μg/ml): x; Proliferative activity, Ofloxacin 50 μg/ml ([8]; ofloxacin 50 μg/ml): x; Proliferative activity, Ofloxacin 100 μg/ml ([8]; ofloxacin 100 μg/ml): x
Lactobacillus johnsonii YIT0482 strain [(B) L. johnsonii YIT0482 strain] | ∘ | ∘ | ∘ | ∘ | ∘ | ∘ | x | x | + (1-9 cells adhered to one gastric mucosal epithelial cell) | 
CC1(C)S[C@@H]2[C@H](NC(=O)Cc3ccccc3)C(=O)N2[C@H]1C(=O)O [Benzylpenicillin] |  |  |  |  |  |  |  |  |  | Resistance of the strain to the antibiotic (in words) [1]: stronger resistance
CO/N=C(\C(=O)N[C@@H]1C(=O)N2C(C(=O)O)=C(CSc3nc(=O)c(=O)[nH]n3C)CS[C@H]12)c1csc(N)n1 [Ceftriaxone sodium] |  |  |  |  |  |  |  |  |  | Resistance of the strain to the antibiotic (in words) [9]: excellent specific resistance
CN[C@@H]1[C@H](O[C@H]2[C@H](O[C@H]3[C@H](O)[C@@H](O)[C@H](NC(=N)N)[C@@H](O)[C@@H]3NC(=N)N)O[C@@H](C)[C@]2(O)CO)O[C@@H](CO)[C@H](O)[C@H]1O [Dihydrostreptomycin] |  |  |  |  |  |  |  |  |  | Resistance of the strains to the antibiotic (in words) [3]: excellent resistance
CC(=O)OCC1=C(C(=O)O)N2C(=O)[C@@H](NC(=O)Cc3cccs3)[C@H]2SC1 [Cefalotin sodium] |  |  |  |  |  |  |  |  |  | Resistance of the strain to the antibiotic (in words) [1]: particularly excellent resistance
COc1cc(NS(=O)(=O)c2ccc(N)cc2)ncn1 [Sulfamonomethoxine] |  |  |  |  |  |  |  |  |  | Resistance of the strains to the antibiotic (in words) [3]: excellent resistance
Lactobacillus crispatus YIT0481 strain [(B) L. crispatus YIT0481 strain] | ∘ | ∘ | ∘ | ∘ | ∘ | ∘ | x | ∘ | + (1-9 cells adhered to one gastric mucosal epithelial cell) | 
